System: Human umbilical cord mesenchymal stem cells
Assay: Screening for the content of conophylline in the medium: differentiation induction, cell cluster morphology
Type: cell-based
Protocol: Media to be tested: 89 parts by volume of DMEM (High Glucose, with 4.5 g/L glucose), 5 parts by volume of serum replacement (SR), 2 parts by volume of B27 (50×), 1 part by volume of ITS, 1 part by volume of non-essential amino acids (NEAA), 1 part by volume of N-2 (100×), and heparin in a final concentration of 1 μg/ml, 10 mmol/L nicotinamide, and recombinant human basic fibroblast growth factor (b-FGF), epidermal growth factor (EGF), hepatocyte growth factor (HGF) and pentagastrin each in a final concentration of 10 ng/ml, and conophylline with a concentration of 1, 10, 50, 100, 200, and 300 ng/ml respectively.
Human umbilical cord mesenchymal stem cells were induced to differentiate through being cultured in the above media comprising different concentrations of conophylline respectively.

CC[C@@]12CC(C(=O)OC)=C3Nc4cc5c(cc4[C@@]34CCN(C[C@H]3O[C@H]31)[C@@H]24)[C@@H]1[C@H](O5)[C@@H](O)[C@@]2(CC)CC(C(=O)OC)=C3Nc4c(cc(O)c(OC)c4OC)[C@@]34CCN1[C@@H]24 [conophylline]
state of cell clusters (medium with 1 ng/ml conophylline): the maturity of the cell clusters was insufficient
state of cell clusters (medium with 10 ng/ml conophylline): the maturity of the cell clusters was insufficient
state of cell clusters (medium with 50 ng/ml conophylline): cell clusters were compact and grew gradually
state of cell clusters (medium with 100 ng/ml conophylline): cell clusters were compact and grew gradually
state of cell clusters (medium with 200 ng/ml conophylline): cell clusters were compact and grew gradually
state of cell clusters (medium with 300 ng/ml conophylline): the differentiated cells had undergone an undirected differentiation
